Measured values published in US9221822B2, “Thiazolopyrimidine modulators as immunosuppressive agents” (Katholieke Universiteit Leuven, K.U.Leuven R&D, priority 2009, dated 2015).
pIC50: −log10 of the molar value.

Tested on: Human peripheral blood mononuclear cells (PBMCs) as Responder cells, RPMI 1788 Stimulator cells
Assay: Mixed Lymphocyte Reaction (MLR) test
Type: cell-based
Settings: 6 days coculture, 3H-thymidine incorporation
Outline: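 Human PBMC responders (0.12×10^6) were cocultured 6 days with mitomycin C-treated RPMI 1788 stimulators (0.045×10^6) and compound in RPMI 1640 with 10% FCS, in triplicate. A ^3H-thymidine pulse on day 5, harvested 18 h later, measured proliferation (cpm), converted to % inhibition versus a compound-free MLR.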

[1] = Homo sapiens, RPMI-1788, lowest concentration giving 50% inhibition of the MLR
[2] = lowest concentration giving 50% inhibition of the MLR

Row | Structure (SMILES) | pIC50 [1] | pIC50 [2]
1 | Nc1nc(N2CCN(C(=O)COc3ccc(Cl)cc3)CC2)c2nc(-c3ccc(C(F)(F)F)cc3)[nH]c2n1 [Example 394, 1-(4-(2-amino-8-(4-(trifluoromethyl)phenyl)-9H-purin-6-yl)piperazin-1-yl)-2-(4-chlorophenoxy)ethanone] | 6.20 | 
2 | Nc1nc(N2CCN(C(=O)COc3ccc(Cl)cc3)CC2)c2nc(-c3ccc(F)cc3)oc2n1 [Example 169, 1-(4-(5-amino-2-(4-fluorophenyl)oxazolo[5,4-d]pyrimidin-7-yl)piperazin-1-yl)-2-(4-chlorophenoxy)ethanone] | 5.52 | 
3 | Nc1nc(N2CCOCC2)c2nc(-c3ccc(F)cc3)sc2n1 [Example 33, 2-(4-fluorophenyl)-7-morpholino-thiazolo[5,4-d]pyrimidin-5-amine] | < 5.00 | 
4 | Nc1nc(N2CCN(C(=O)COc3ccc(Cl)cc3)CC2)c2nc(-c3ccc[n+]([O-])c3)sc2n1 [Example 121b, 5-amino-7-[4-(4-chlorophenoxyacetyl)piperazin-1-yl]-2-(N-oxopyridine-3-yl)thiazolo[5,4-d]pyrimidine] |  | 6.08
5 | Nc1nc(N2CCN(C(=O)COc3ccc(Cl)cc3)CC2)c2nc(CCc3cccs3)sc2n1 [Example 154, 5-amino-2-(2-thiophen-2-ylethyl)-7-(4-[2-(4-chloro-phenoxy)acetyl]piperazin-1-yl)thiazolo[5,4-d]pyrimidine] | 6.10 | 
6 | COc1ccccc1NC(=O)N1CCN(c2nc(N)nc3sc(-c4ccc(F)cc4)nc23)CC1 [Example 219, 4-(5-amino-2-(4-fluorophenyl)thiazolo[5,4-d]pyrimidin-7-yl)-N-(2-methoxyphenyl)piperazine-1-carboxamide] | 6.49 | 
7 | Nc1nc(N2CCN(C(=O)COc3ccc(Cl)cc3)CC2)c2nc(-c3ccc(F)cc3)sc2n1 [Example 45, 1-(4-(5-amino-2-(4-fluorophenyl)thiazolo[5,4-d]pyrimidin-7-yl)piperazin-1-yl)-2-(4-chlorophenoxy)ethanone] | 6.52 | 
8 | Nc1nc(N2CCN(C(=O)CCc3ccccc3)CC2)c2nc(-c3ccc(F)cc3)[nH]c2n1 [Example 438, 1-(4-(2-amino-8-(4-fluorophenyl)-9H-purin-6-yl)piperazin-1-yl)-3-phenylpropan-1-one] | 5.59 | 
9 | Nc1nc(N2CCN(C(=O)COc3cccc([N+](=O)[O-])c3)CC2)c2nc(CCc3ccc(F)cc3)sc2n1 [Example 131, 5-amino-2-[2-(4-fluorophenyl)ethyl]-7-(4-[2-(3-nitrophenoxy)acetyl]piperazin-1-yl)-thiazolo[5,4-d]pyrimidine] | 5.49 | 
10 | Nc1nc(N2CCN(C(=O)COc3cccc([N+](=O)[O-])c3)CC2)c2nc(-c3ccc(F)cc3)sc2n1 [Example 129, 5-amino-2-(4-fluorophenyl)-7-(4-[2-(3-nitrophenoxy)acetyl]-piperazin-1-yl)-thiazolo[5,4-d]pyrimidine] | 6.54 | 
11 | CCCCCc1nc2c(N3CCN(C(=O)COc4ccc(Cl)cc4)CC3)nc(N)nc2s1 [Example 297, 1-(4-(5-amino-2-pentylthiazolo[5,4-d]pyrimidin-7-yl)piperazin-1-yl)-2-(4-chlorophenoxy)ethanone] | 6.16 | 
12 | COCCCNc1nc(N)nc2sc(-c3ccc(F)cc3)nc12 [Example 32, 2-(4-fluorophenyl)-N-7-(3-methoxypropyl)thiazolo[5,4-d]pyrimidine-5,7-diamine] |  | < 5.00
13 | Nc1nc(N2CCN(C(=O)COc3ccc(Cl)cc3)CC2)c2nc(C3CCCCC3)oc2n1 [Example 187, 5-amino-2-cyclohexyl-7-[4-(4-chlorophenoxyacetyl)piperazin-1-yl]oxazolo[5,4-d]pyrimidine] | < 5.00 | 
14 | COc1ccc(OCC(=O)N2CCN(c3nc(N)nc4sc(-c5cccnc5)nc34)CC2)cc1 [Example 271, 1-(4-(5-amino-2-(pyridin-3-yl)thiazolo[5,4-d]pyrimidin-7-yl)piperazin-1-yl)-2-(4-methoxyphenoxy)ethanone] | 7.92 | 
15 | N#Cc1ccc(NC(=O)N2CCN(c3nc(N)nc4sc(-c5cccnc5)nc34)CC2)cc1 [Example 279, 4-(5-amino-2-(pyridin-3-yl)thiazolo[5,4-d]pyrimidin-7-yl)-N-(4-cyanophenyl)piperazine-1-carboxamide] | 7.00 | 
16 | CC(C)(C)c1nc2c(N3CCN(C(=O)COc4ccc(Cl)cc4)CC3)nc(N)nc2[nH]1 [Example 399, 1-(4-(2-amino-8-tert-butyl-9H-purin-6-yl)piperazin-1-yl)-2-(4-chlorophenoxy)ethanone] | 5.20 | 
17 | Nc1nc(N2CCN(C(=O)Nc3ccc(Br)cc3)CC2)c2nc(-c3ccc(F)cc3)sc2n1 [Example 218, 4-(5-amino-2-(4-fluorophenyl)thiazolo[5,4-d]pyrimidin-7-yl)-N-(4-bromophenyl)piperazine-1-carboxamide] | 6.75 | 
18 | CCCCCc1nc2c(N3CCN(C(=O)COc4ccc(Cl)cc4)CC3)nc(N)nc2o1 [Example 188, 5-amino-7-[4-(4-chlorophenoxyacetyl)piperazin-1-yl]-2-pentyloxazolo[5,4-d]pyrimidine] | 5.35 | 

Row | Structure (SMILES) | pIC50 [1] | pIC50 [2]
19 | Nc1nc(N2CCN(CC(=O)NCCc3ccccc3)CC2)c2nc(CCc3ccc(F)cc3)sc2n1 [Example 141, 5-amino-2-[2-(4-fluorophenyl)ethyl]-7-(4-(phenethylcarbamoyl-methyl)piperazin-1-yl)-thiazolo[5,4-d]pyrimidine] | 5.85 | 
20 | Nc1nc(N2CCN(C(=O)COc3ccc(Cl)cc3)CC2)c2nc(C3CC3)sc2n1 [Example 119, 5-amino-2-cyclopropyl-7-[4-(4-chlorophenoxyacetyl)piperazin-1-yl]-thiazolo[5,4-d]pyrimidine] | 6.22 | 
21 | CSc1nc2c(N3CCN(C(=O)COc4ccc(Cl)cc4)CC3)nc(N)nc2s1 [Example 115, 5-amino-7-[4-(4-chlorophenoxyacetyl)piperazin-1-yl]-2-methylthio-thiazolo[5,4-d]pyrimidine] | < 5.00 | 
22 | Cc1cccc(NC(=O)N2CCN(c3nc(N)nc4sc(Cc5ccc(F)cc5)nc34)CC2)c1 [Example 44, 4-(5-amino-2-(4-fluorobenzyl)thiazolo[5,4-d]pyrimidin-7-yl)-N-m-tolylpiperazine-1-carboxamide] | 6.40 | 
23 | Nc1nc(N2CCN(C(=O)COc3ccc(Cl)cc3)CC2)c2nc(CCCCc3ccc(F)cc3)sc2n1 [Example 292, 1-(4-(5-amino-2-(4-(4-fluorophenyl)butyl)thiazolo[5,4-d]pyrimidin-7-yl)piperazin-1-yl)-2-(4-chlorophenoxy)ethanone] | 6.04 | 
24 | Nc1nc(N2CCN(CC(=O)N3CCCC3)CC2)c2nc(-c3ccc(F)cc3)[nH]c2n1 [Example 410, 2-(4-(2-amino-8-(4-fluorophenyl)-9H-purin-6-yl)piperazin-1-yl)-1-(pyrrolidin-1-yl)ethanone] | < 5.00 | 
25 | Nc1nc(N2CCN(C(=O)COc3ccc(Cl)cc3)CC2)c2cc(-c3ccc(F)cc3)sc2n1 [Example 326, 1-(4-(2-amino-6-(4-fluorophenyl)thieno[2,3-d]pyrimidin-4-yl)piperazin-1-yl)-2-(4-chlorophenoxy)ethanone] | 6.15 | 
26 | Nc1nc(N2CCN(C(=O)COc3ccc(Cl)cc3)CC2)c2nc(SCc3ccccc3)[nH]c2n1 [Example 426, 1-(4-(2-amino-8-(benzylthio)-9H-purin-6-yl)piperazin-1-yl)-2-(4-chlorophenoxy)ethanone] | 5.48 | 
27 | Nc1nc(N2CCN(CCOc3ccccc3)CC2)c2nc(CCc3ccc(F)cc3)sc2n1 [Example 149, 5-amino-2-[2-(4-fluorophenyl)ethyl]-7-(4-(2-phenoxyethyl)piperazin-1-yl)-thiazolo[5,4-d]pyrimidine] | 5.24 | 
28 | Nc1nc(N2CC[C@@H](NC(=O)c3ccc(Cl)cc3)C2)c2nc(CCc3ccc(F)cc3)sc2n1 [Example 144, 5-amino-2-[2-(4-fluorophenyl)ethyl]-7-(3-(R)-(4-chlorobenzoylamino)-pyrrolidin-1-yl)-thiazolo[5,4-d]pyrimidine] | 5.29 | 
29 | Nc1nc(N2CCN(C(=O)COc3ccc(Cl)cc3)CC2)c2nc(CCc3ccccc3)sc2n1 [Example 118, 5-amino-7-[4-(4-chlorophenoxyacetyl)piperazin-1-yl]-2-(2-phenylethyl)thiazolo[5,4-d]pyrimidine] | 6.07 | 
30 | Nc1nc(N2CCN(C(=O)COc3ccc(Cl)cc3)CC2)c2nc(C3(c4ccc(Cl)cc4)CC3)sc2n1 [Example 117, 5-amino-7-[4-(4-chlorophenoxyacetyl)piperazin-1-yl]-2-(1-(4-chlorophenyl)cyclopropyl)thiazolo[5,4-d]pyrimidine] | 5.60 | 
31 | Cc1nc(N2CCN(C(=O)COc3ccc(Cl)cc3)CC2)c2cc(-c3ccc(F)cc3)sc2n1 [Example 325, 2-(4-chlorophenoxy)-1-(4-(6-(4-fluorophenyl)-2-methylthieno[2,3-d]pyrimidin-4-yl)piperazin-1-yl)ethanone] | 5.47 | 
32 | Nc1nc(N2CCN(C(=O)COc3ccc(F)cc3)CC2)c2nc(-c3ccco3)sc2n1 [Example 209, 1-(4-(5-amino-2-(furan-2-yl)thiazolo[5,4-d]pyrimidin-7-yl)piperazin-1-yl)-2-(4-fluorophenoxy)ethanone] | 7.26 | 
33 | Nc1nc(N2CCN(C(=O)COc3ccc(Cl)cc3)CC2)c2nc(CCc3ccc(F)cc3)sc2n1 [Example 49, 1-(4-(5-amino-2-(4-fluorophenethyl)-thiazolo[5,4-d]pyrimidin-7-yl)piperazin-1-yl)-2-(4-chlorophenoxy)ethanone] | 5.36 | 
34 | Cc1cccc(OCC(=O)N2CCN(c3nc(N)nc4sc(-c5ccc(F)cc5)nc34)CC2)c1 [Example 211, 1-(4-(5-amino-2-(4-fluorophenyl)thiazolo[5,4-d]pyrimidin-7-yl)piperazin-1-yl)-2-(m-tolyloxy)ethanone] | 7.28 | 
35 | Nc1nc(N2CCN(C(=O)COc3ccc(Cl)cc3)CC2)c2nc(-c3cccc(Cl)c3)[nH]c2n1 [Example 393, 1-(4-(2-amino-8-(3-chlorophenyl)-9H-purin-6-yl)piperazin-1-yl)-2-(4-chlorophenoxy)ethanone] | 6.18 | 
